Reference: PubChem BioAssay AID248 (DTP/NCI, 2004)
Inconclusive results and toxic doses are left out. No stated cut-off is given here; in the data, active means T/C of 150% or more; inactive means T/C below 125%.

System: L1210 leukemia ip in BDF1 mice, survival T/C
Experiment: NCI In Vivo Anticancer Drug Screen. Data for tumor model L1210 Leukemia (intraperitoneal) in B6D2F1 (BDF1) mice
Conditions: endpoint: mean survival time, higher = longer survival
Procedure, shortened: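 Tumor cells were implanted, animals were treated, and survival was followed. The result divides the treated measurement by the vehicle-control measurement.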

[1] = dose: 100.0 mg/kg/injection, schedule: Q04DX002 (ip), vehicle: Klucel (hydroxypropylcellulose) (HPC)
[2] = dose: 200.0 mg/kg/injection, schedule: Q04DX002 (ip), vehicle: Klucel (hydroxypropylcellulose) (HPC)
[3] = dose: 400.0 mg/kg/injection, schedule: Q04DX002 (ip), vehicle: Klucel (hydroxypropylcellulose) (HPC)
[4] = dose: 100.0 mg/kg/injection, schedule: Q01DX001 (ip), vehicle: saline
[5] = dose: 200.0 mg/kg/injection, schedule: Q01DX001 (ip), vehicle: saline
[6] = dose: 100.0 mg/kg/injection, schedule: Q01DX009 (ip), vehicle: Klucel (hydroxypropylcellulose) (HPC)
[7] = dose: 100.0 mg/kg/injection, schedule: Q04DX003 (ip), vehicle: Klucel (hydroxypropylcellulose) (HPC)
[8] = dose: 200.0 mg/kg/injection, schedule: Q01DX009 (ip), vehicle: Klucel (hydroxypropylcellulose) (HPC)
[9] = dose: 75.0 mg/kg/injection, schedule: Q01DX001 (ip), vehicle: other
[10] = dose: 100.0 mg/kg/injection, schedule: Q01DX001 (ip), vehicle: Klucel (hydroxypropylcellulose) (HPC)
[11] = dose: 200.0 mg/kg/injection, schedule: Q01DX001 (ip), vehicle: Klucel (hydroxypropylcellulose) (HPC)
[12] = dose: 400.0 mg/kg/injection, schedule: Q01DX001 (ip), vehicle: Klucel (hydroxypropylcellulose) (HPC)

Measured: T/C

CCOC(=O)C1(C)Nc2ccc3ccccc3c2NC1=O (centres undefined)
inactive: [1] 93 % of control | [2] 101 % of control | [3] 101 % of control

Clc1ccc2c(Cl)ncnc2c1
inactive: dose: 13.0 mg/kg/injection, schedule: Q01DX Z (ip), vehicle: methylcellulose (MC) 100 % of control | dose: 20.0 mg/kg/injection, schedule: Q01DX Z (ip), vehicle: methylcellulose (MC) 100 % of control | dose: 30.0 mg/kg/injection, schedule: Q01DX Z (ip), vehicle: methylcellulose (MC) 104 % of control | dose: 45.0 mg/kg/injection, schedule: Q01DX Z (ip), vehicle: methylcellulose (MC) 105 % of control | dose: 50.0 mg/kg/injection, schedule: Q01DX009 (ip), vehicle: saline 96 % of control | dose: 50.0 mg/kg/injection, schedule: Q04DX003 (ip), vehicle: saline 97 % of control | [4] 99 % of control | dose: 100.0 mg/kg/injection, schedule: Q01DX009 (ip), vehicle: saline 100 % of control | dose: 100.0 mg/kg/injection, schedule: Q04DX003 (ip), vehicle: saline 97 % of control | [5] 91 % of control | dose: 200.0 mg/kg/injection, schedule: Q04DX003 (ip), vehicle: saline 94 % of control

C=CCNC(=O)N(CC=C)N=O
inactive: dose: 1.5 mg/kg/injection, schedule: Q01DX001 (ip), vehicle: carboxymethylcellulose (CMC) 102 % of control | dose: 3.0 mg/kg/injection, schedule: Q01DX001 (ip), vehicle: carboxymethylcellulose (CMC) 95 % of control | dose: 6.0 mg/kg/injection, schedule: Q01DX001 (ip), vehicle: carboxymethylcellulose (CMC) 96 % of control | dose: 12.0 mg/kg/injection, schedule: Q01DX001 (ip), vehicle: carboxymethylcellulose (CMC) 90 % of control | dose: 16.0 mg/kg/injection, schedule: Q01DX001 (ip), vehicle: carboxymethylcellulose (CMC) 102 % of control | dose: 31.0 mg/kg/injection, schedule: Q01DX001 (ip), vehicle: carboxymethylcellulose (CMC) 104 % of control | dose: 62.0 mg/kg/injection, schedule: Q01DX001 (ip), vehicle: carboxymethylcellulose (CMC) 100 % of control | dose: 125.0 mg/kg/injection, schedule: Q01DX001 (ip), vehicle: carboxymethylcellulose (CMC) 96 % of control

CCCOC(C[N+](=O)[O-])C(Cl)(Cl)Cl (centres undefined)
inactive: dose: 6.25 mg/kg/injection, schedule: Q01DX009 (ip), vehicle: saline with Tween-80 91 % of control | dose: 12.5 mg/kg/injection, schedule: Q01DX009 (ip), vehicle: saline with Tween-80 96 % of control | dose: 25.0 mg/kg/injection, schedule: Q01DX009 (ip), vehicle: saline with Tween-80 101 % of control | dose: 25.0 mg/kg/injection, schedule: Q04DX003 (ip), vehicle: saline with Tween-80 104 % of control

CC(=O)NC(C=O)C(OC(C)=O)C(OC(C)=O)C(COC(C)=O)OC(C)=O (centres undefined)
inactive: dose: 100.0 mg/kg/injection, schedule: Q04DX002 (ip), vehicle: saline with Tween-80 100 % of control | dose: 200.0 mg/kg/injection, schedule: Q04DX002 (ip), vehicle: saline with Tween-80 107 % of control | dose: 400.0 mg/kg/injection, schedule: Q04DX002 (ip), vehicle: saline with Tween-80 96 % of control

O=C(O)C1CCC2CCCCC2[N-]1.O=C(O)C1CCC2CCCCC2[N-]1.[Cu+2] (centres undefined)
inactive: dose: 6.25 mg/kg/injection, schedule: Q01DX009 (ip), vehicle: saline 97 % of control | dose: 6.25 mg/kg/injection, schedule: Q04DX003 (ip), vehicle: saline 105 % of control | dose: 12.5 mg/kg/injection, schedule: Q01DX009 (ip), vehicle: saline 90 % of control | dose: 12.5 mg/kg/injection, schedule: Q04DX003 (ip), vehicle: saline 100 % of control | dose: 25.0 mg/kg/injection, schedule: Q01DX009 (ip), vehicle: saline 97 % of control | dose: 25.0 mg/kg/injection, schedule: Q04DX003 (ip), vehicle: saline 94 % of control

Cc1cc(C)c(NC(=O)Nc2cccc(Cl)c2)c(C)c1
inactive: [6] 100 % of control | [7] 101 % of control | [8] 105 % of control | dose: 200.0 mg/kg/injection, schedule: Q04DX003 (ip), vehicle: Klucel (hydroxypropylcellulose) (HPC) 94 % of control | dose: 400.0 mg/kg/injection, schedule: Q04DX003 (ip), vehicle: Klucel (hydroxypropylcellulose) (HPC) 89 % of control

Cc1cc(N(CCOS(C)(=O)=O)CCOS(C)(=O)=O)ccc1C=Nc1cccc(Cl)c1
inactive: dose: 20.0 mg/kg/injection, schedule: Q04DX003 (ip), vehicle: Klucel (hydroxypropylcellulose) (HPC) 107 % of control | dose: 40.0 mg/kg/injection, schedule: Q04DX003 (ip), vehicle: Klucel (hydroxypropylcellulose) (HPC) 115 % of control | dose: 80.0 mg/kg/injection, schedule: Q04DX003 (ip), vehicle: Klucel (hydroxypropylcellulose) (HPC) 107 % of control | [7] 120 % of control

O=C(CCN1CCCCC1)c1ccc([N+](=O)[O-])cc1
inactive: [5] 103 % of control

O=C(O)c1ccc2c3c(ccc(C(=O)O)c13)CC2
inactive: [4] 104 % of control

O=C(NCCCl)NC1C2CC3CC(C2)CC1C3 (centres undefined)
inactive: [9] 93 % of control | dose: 150.0 mg/kg/injection, schedule: Q01DX001 (ip), vehicle: other 89 % of control | dose: 300.0 mg/kg/injection, schedule: Q01DX001 (ip), vehicle: other 89 % of control

O=C1c2ccccc2-c2c(O)cccc21
inactive: [10] 94 % of control | [11] 100 % of control | [12] 96 % of control

CCCCCC(Oc1ccc(Cl)cc1C)C(=O)OCC (centres undefined)
inactive: [1] 90 % of control | [2] 87 % of control | [3] 107 % of control

CC1(C)C2CC3C(=CCC4C(=O)C5CC=C6C(CC7CC6C7(C)C)C5C(=O)C43)C1C2 (centres undefined)
inactive: [10] 103 % of control | [11] 93 % of control | [12] 93 % of control

CCC[CH2][Sn]([CH2]CCC)([CH2]CCC)[CH2]C(C)(C)c1ccccc1
inactive: [9] 91 % of control

Cc1c(N=Cc2ccccc2)c(=O)n(-c2ccccc2)n1C
inactive: dose: 100.0 mg/kg/injection, schedule: Q01DX009 (ip), vehicle: gum acacia 104 % of control | dose: 100.0 mg/kg/injection, schedule: Q04DX003 (ip), vehicle: gum acacia 100 % of control | dose: 200.0 mg/kg/injection, schedule: Q04DX003 (ip), vehicle: gum acacia 95 % of control | dose: 400.0 mg/kg/injection, schedule: Q01DX009 (ip), vehicle: gum acacia 88 % of control | dose: 400.0 mg/kg/injection, schedule: Q04DX003 (ip), vehicle: gum acacia 95 % of control

CC(=O)OC(c1ccccc1)C1CCCCC1N1CCCCC1 (centres undefined)
inactive: [10] 95 % of control | [11] 96 % of control

On1nc(-c2ccccc2)c(-c2c(-c3ccccc3)nn(O)c2-c2ccccc2)c1-c1ccccc1
inactive: dose: 50.0 mg/kg/injection, schedule: Q01DX009 (ip), vehicle: Klucel (hydroxypropylcellulose) (HPC) 90 % of control | [6] 90 % of control | [8] 97 % of control
